Laboratory results from paper PMC6905430 (Biochemistry, 2019).

How the values were obtained:
H49A DXP synthase = H49A DXP synthase (Escherichia coli, UniProt P77488, H49A); format: biochemical, E. coli
H299A DXP synthase = H299A DXP synthase (Escherichia coli, UniProt P77488, H299A); format: biochemical, E. coli; conditions: H299A vs wild type
H299N DXP synthase = H299N DXP synthase (Escherichia coli, UniProt P77488, H299N); format: biochemical, E. coli
H49N DXP synthase = H49N DXP synthase (Escherichia coli, UniProt P77488, H49N); format: biochemical, E. coli; conditions: read-out: Km^app,pyruvate; anaerobic; pyruvate varied, D-GAP 500 μM; n = 3
wild type DXP synthase = wild type DXP synthase (Escherichia coli, UniProt P77488); experiment: Anaerobic limited trypsinolysis in the presence of MAP; set-up: species or system E. coli; conditions: preincubation with MAP 65 μM, 45 min, 6 °C; trypsin 4.5 ng/μL; up to 150 min
[1] = read-out: Km^app,pyruvate, anaerobic, pyruvate varied, D-GAP 500 μM, n = 3

| Structure (SMILES) | decrease in kcat/Km^pyruvate compared to wild type DXP synthase (H49A DXP synthase; H49A vs wild type) | Km (H49A DXP synthase; [1]) | decrease in kcat/Km^pyruvate relative to wild type DXP synthase (H299A DXP synthase) | decrease in kcat/Km^pyruvate relative to wild type DXP synthase (H299N DXP synthase; H299N vs wild type) | Km (H299N DXP synthase; [1]) | Km (H49N DXP synthase) | effect of MAP on trypsinolysis profile (wild type DXP synthase) |
| --- | --- | --- | --- | --- | --- | --- | --- |
| CC(=O)C(=O)O [pyruvate] | 76 fold | 1.07 mM | 846 fold | 185 fold | 1.08 mM | 1.61 mM | – |
| COP(=O)(O)C(C)=O [MAP, methylacetylphosphonate] | – | – | – | – | – | – | K313 is protected from typsinolysis |
